Source: patent US11149011B2, “Compounds and methods for IDO and TDO modulation, and indications therefor” (Plexxikon Inc., priority 2018, dated 2021)

Experiments:
IDO1 = biological target: T1, IDO1 (Homo sapiens, UniProt P14902); test: IDO enzymatic assay; format: biochemical; conditions: geometric mean; read-out: IDO1 GMean: IC50 (μM) (Biochemical Assay)
T1 construct: His tag (N); made in house; host or cells: E. coli
Procedure: (§1) Human IDO or TDO with N-terminal His tag is purified in E. coli. The IDO enzymatic assay is performed using 6 nM IDO and 10 μM L-Trp in the presence of 10 mM ascorbic acid, 5 μM methylene blue, 100 nM catalase and 0.01% Tween 20 in 50 mM sodium phosphate buffer (pH 6.5). 19 μL of above reaction mixture is added to wells of 384 well reaction plate containing 1 μL of various concentrations of test compound or DMSO vehicle and incubated for 20 minutes at room temperature. The TDO enzymatic reaction assay is performed using 1 nM TDO and 350 μM L-Trp in the presence of 10 mM ascorbic acid, 0.4 μM methylene blue, 100 nM catalase and 0.01% Tween 20 in 50 mM sodium phosphate buffer (pH 6.5). 19 μL of above reaction mixture is added to wells of 384 well reaction plate containing 1 μL of various concentrations of test compound or DMSO vehicle and incubated for 70 minutes at room temperature. 16 wells containing all the components of reaction mixture and 5% DMSO serve as high control. 16 well containing all the components except enzyme of reaction mixture and 5% DMSO serves as low control. Both IDO and TDO enzymatic reactions are stopped by addition of 4 μL of 30% TCA and incubated 30 minutes at 50° C. to hydrolyze N-formylkynurenine produced by IDO or TDO to kynurenine. Upon measuring the kynurenine level, the percentage inhibition is calculated at individual concentrations relative to high and low controls. The data is analyzed by using nonlinear regression to generate IC50 values.

TDO = biological target: T2, TDO (Homo sapiens, UniProt P48775); test: TDO enzymatic assay; conditions: geometric mean; read-out: TDO GMean: IC50 (μM) (Biochemical Assay)
T2 construct: His tag (N); made in house; host or cells: E. coli
Procedure: as §1

[1] = biological target: T3, IDO1-expressing HEK293 cell clones (Homo sapiens, UniProt P14902); test: Cell based kynurenine assay, IDO1-expressing HEK293 cell clones; conditions: HEK293 cells, 24 hours of incubation, geometric mean; read-out: HEK293 IDO1 Kynurenine GMean IC50 (μM) (Cellular Assay)
T3 construct: expressed in transfected cells; host or cells: HEK293
Procedure: (§2) IDO1-expressing or TDO-expressing HEK293 cell clones are generated upon stable transfection of plasmids expressing human IDO or human TDO under the control of CMV promoter. Cells are selected in DMEM media supplemented with 10% fetal bovine serum and 1 mg/ml G418 at 37° C. in a humidified incubator supplied with 5% CO2. The assays are performed as follows.
(§3) Cells were seeded in a 96 well plate in 50 μL of culture media at a density of 2.5×10^4 per well. Serial dilutions of compounds (in total volume of 50 μL culture media) are added into cells. 4 wells containing 0.2% DMSO treated cells serve as high controls and 4 wells containing media only with 0.2% DMSO serve as low controls. After 24 hours of incubation, the supernatant was transferred to a 384 well reaction plate and the kynurenine level determined. The percentage inhibition at individual concentrations relative to high and low controls is calculated. The data is analyzed by using nonlinear regression to generate IC50 values.

[2] = biological target: T4, TDO-expressing HEK293 cell clones (Homo sapiens, UniProt P48775); test: Cell based kynurenine assay, TDO-expressing HEK293 cell clones; conditions: HEK293 cells, 24 hours of incubation, geometric mean; read-out: HEK293 TDO Kynurenine GMean IC50 (μM) (Cellular Assay)
T4 construct: expressed in transfected cells; host or cells: HEK293
Procedure: as §2, §3

Measured: IC50

T4 sequence (P48775 whole entry): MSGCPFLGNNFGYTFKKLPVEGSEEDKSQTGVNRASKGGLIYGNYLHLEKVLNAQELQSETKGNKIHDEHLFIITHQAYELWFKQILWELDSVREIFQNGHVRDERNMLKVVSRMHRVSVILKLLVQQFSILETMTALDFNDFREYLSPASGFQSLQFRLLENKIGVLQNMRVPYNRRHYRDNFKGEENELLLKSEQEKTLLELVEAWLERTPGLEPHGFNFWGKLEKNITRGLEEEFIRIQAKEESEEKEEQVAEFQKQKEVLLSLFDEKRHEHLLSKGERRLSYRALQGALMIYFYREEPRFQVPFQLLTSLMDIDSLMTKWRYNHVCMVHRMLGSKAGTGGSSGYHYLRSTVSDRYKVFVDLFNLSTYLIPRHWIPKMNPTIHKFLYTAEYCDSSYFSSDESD
T2 sequence (P48775 whole entry): as above
T1 sequence (P14902 whole entry): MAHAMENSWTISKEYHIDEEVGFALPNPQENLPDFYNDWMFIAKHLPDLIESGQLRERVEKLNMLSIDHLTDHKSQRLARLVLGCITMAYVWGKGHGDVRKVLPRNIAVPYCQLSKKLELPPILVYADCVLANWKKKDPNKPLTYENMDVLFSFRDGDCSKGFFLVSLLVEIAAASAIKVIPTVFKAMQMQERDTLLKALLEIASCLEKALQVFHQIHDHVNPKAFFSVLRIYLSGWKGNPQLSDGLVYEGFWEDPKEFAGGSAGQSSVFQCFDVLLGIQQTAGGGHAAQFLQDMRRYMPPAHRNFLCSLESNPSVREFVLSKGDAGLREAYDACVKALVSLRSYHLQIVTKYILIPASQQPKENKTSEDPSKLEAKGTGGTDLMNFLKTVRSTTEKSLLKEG
T3 sequence (P14902 whole entry): as above

CC(C)(C1CCN(C(=O)NCC2CCC2)CC1)C(O)c1cc(Cl)cc2[nH]ncc12 (stereo not drawn) [Compound P-0092, 4-(1-(6-chloro-1H-indazol-4-yl)-1-hydroxy-2-methylpropan-2-yl)-N-(cyclobutylmethyl)piperidine-1-carboxamide]
0.0001 to 10 µM: all assays above

CC(C)ONC(=O)N1CCC(C(C)(C)[C@H](O)c2cc(Cl)cc3cn[nH]c23)CC1 [Compound P-0064, (S)-4-(1-(5-chloro-1H-indazol-7-yl)-1-hydroxy-2-methylpropan-2-yl)-N-isopropoxypiperidine-1-carboxamide]
0.0001 to 10 µM: all assays above

CC(C)(C1CCN(C(=O)NCCC(F)(F)F)CC1)C(O)c1cc(Cl)cc2[nH]ncc12 (stereo not drawn) [Compound P-0086, 4-(1-(6-chloro-1H-indazol-4-yl)-1-hydroxy-2-methylpropan-2-yl)-N-(3,3,3-trifluoropropyl)piperidine-1-carboxamide]
0.0001 to 10 µM: all assays above

CC(C)(C1CCN(C(=O)CC(F)(F)F)CC1)C(O)c1cc(Cl)cc2[nH]ncc12 (stereo not drawn) [Compound P-0051, 1-(4-(1-(6-chloro-1H-indazol-4-yl)-1-hydroxy-2-methylpropan-2-yl)piperidin-1-yl)-3,3,3-trifluoropropan-1-one]
0.0001 to 10 µM: all assays above

CC(C)(C1CCN(C(=O)N[C@H]2CCC[C@@H]2O)CC1)[C@H](O)c1cc(Cl)cc2cn[nH]c12 [Compound P-0024, 4-((S)-1-(5-chloro-1H-indazol-7-yl)-1-hydroxy-2-methylpropan-2-yl)-N-((1S,2S)-2-hydroxycyclopentyl)piperidine-1-carboxamide]
0.0001 to 10 µM: all assays above

CS(=O)(=O)N1CC=C(c2cc(Cl)cc3cn[nH]c23)CC1 [Compound P-0098, 5-chloro-7-(1-(methylsulfonyl)-1,2,3,6-tetrahydropyridin-4-yl)-1H-indazole]
0.0001 to 10 µM: all assays above

N#CC1CCN(c2cc(Cl)cc3cn[nH]c23)CC1 [Compound P-0097, 1-(5-chloro-1H-indazol-7-yl)piperidine-4-carbonitrile]
0.0001 to 10 µM: all assays above

CC(C)(O)C(=O)N1CCC(C(C)(C)[C@H](O)c2cc(Cl)cc3cn[nH]c23)CC1 [Compound P-0132, (S)-1-(4-(1-(5-chloro-1H-indazol-7-yl)-1-hydroxy-2-methylpropan-2-yl)piperidin-1-yl)-2-hydroxy-2-methylpropan-1-one]
0.0001 to 10 µM: all assays above

COCCNC(=O)N1CCC(C(C)(C)C(O)c2cc(Cl)cc3[nH]ncc23)CC1 (stereo not drawn) [Compound P-0083, 4-(1-(6-chloro-1H-indazol-4-yl)-1-hydroxy-2-methylpropan-2-yl)-N-(2-methoxyethyl)piperidine-1-carboxamide]
0.0001 to 10 µM: all assays above

CC(C)(C1CCN(C(=O)NCc2cncnc2)CC1)[C@H](O)c1cc(Cl)cc2cn[nH]c12 [Compound P-0026, (S)-4-(1-(5-chloro-1H-indazol-7-yl)-1-hydroxy-2-methylpropan-2-yl)-N-(pyrimidin-5-ylmethyl)piperidine-1-carboxamide]
0.0001 to 10 µM: all assays above

CNC(=O)CNC(=O)N1CCC(C(C)(C)C(O)c2cc(Cl)cc3[nH]ncc23)CC1 (stereo not drawn) [Compound P-0089, 4-(1-(6-chloro-1H-indazol-4-yl)-1-hydroxy-2-methylpropan-2-yl)-N-(2-(methylamino)-2-oxoethyl)piperidine-1-carboxamide]
0.0001 to 10 µM: all assays above

CC(C)(C1CCN(C(=O)NCc2ccc(F)cn2)CC1)C(O)c1cc(Cl)cc2[nH]ncc12 (stereo not drawn) [Compound P-0117, 4-(1-(6-chloro-1H-indazol-4-yl)-1-hydroxy-2-methylpropan-2-yl)-N-((5-fluoropyridin-2-yl)methyl)piperidine-1-carboxamide]
0.0001 to 10 µM: all assays above

CC(C)(C1CCN(C(=O)NCC2COC2)CC1)[C@H](O)c1cc(Cl)cc2cn[nH]c12 [Compound P-0023, (S)-4-(1-(5-chloro-1H-indazol-7-yl)-1-hydroxy-2-methylpropan-2-yl)-N-(oxetan-3-ylmethyl)piperidine-1-carboxamide]
0.0001 to 10 µM: all assays above

CC(C)(C1CCN(C(=O)NOCC2CC2)CC1)[C@H](O)c1cc(Cl)cc2cn[nH]c12 [Compound P-0600, (S)-4-(1-(5-chloro-1H-indazol-7-yl)-1-hydroxy-2-methylpropan-2-yl)-N-(cyclopropylmethoxy)piperidine-1-carboxamide]
0.0001 to 10 µM: all assays above

CC(C)(C1CCN(C(=O)N[C@@H]2CCOC2)CC1)C(O)c1cc(Cl)cc2[nH]ncc12 (stereo partly drawn) [Compound P-0113, 4-(1-(6-chloro-1H-indazol-4-yl)-1-hydroxy-2-methylpropan-2-yl)-N-((R)-tetrahydrofuran-3-yl)piperidine-1-carboxamide]
0.0001 to 10 µM: all assays above

C[C@@H](N)C(=O)N1CCC(C(C)(C)[C@H](O)c2cc(Cl)cc3cn[nH]c23)CC1 [Compound P-0125, (R)-2-amino-1-(4-((S)-1-(5-chloro-1H-indazol-7-yl)-1-hydroxy-2-methylpropan-2-yl)piperidin-1-yl)propan-1-one]
0.0001 to 10 µM: all assays above

C[C@H](N)C(=O)N1CCC(C(C)(C)[C@H](O)c2cc(Cl)cc3cn[nH]c23)CC1 [Compound P-0127, (S)-2-amino-1-(4-((S)-1-(5-chloro-1H-indazol-7-yl)-1-hydroxy-2-methylpropan-2-yl)piperidin-1-yl)propan-1-one]
0.0001 to 10 µM: all assays above

CC(C)(C1CCN(C(=O)NOc2ccccc2)CC1)[C@H](O)c1cc(Cl)cc2cn[nH]c12 [Compound P-0066, (S)-4-(1-(5-chloro-1H-indazol-7-yl)-1-hydroxy-2-methylpropan-2-yl)-N-phenoxypiperidine-1-carboxamide]
0.0001 to 10 µM: all assays above
